In ChEMBL document CHEMBL3112523, “Synthesis and biological evaluation of benzo[4,5]imidazo[1,2-c]pyrimidine and benzo[4,5]imidazo[1,2-a]pyrazine derivatives as anaplastic lymphoma kinase inhibitors” (Bioorg Med Chem, 2014):

Columns and labels:
[1] = biological target: ALK tyrosine kinase receptor (Homo sapiens, UniProt Q9UM73)
[2] = biological target: ALK tyrosine kinase receptor (Homo sapiens, UniProt Q9UM73, L1196M)
BaF3 = assay: cells; conditions: Mus musculus
Description: Cytotoxicity against mouse BAF3 cells assessed as growth inhibition after 72 hrs by [3H]-thymidine incorporation assay

SMILES | IC50 [1] [µM] | IC50 [2] [µM] | IC50 (BaF3) [µM]
Clc1cc2nc3ccccc3n2cn1 | > 100 | – | –
c1ccc(Nc2cc3nc4ccccc4n3cn2)cc1 | 52 | 10 | –
O=[N+]([O-])c1cccc(Nc2cc3nc4ccccc4n3cn2)c1 | 10 | 14 | –
COc1cccc(Nc2cc3nc4ccccc4n3cn2)c1 | 51 | – | –
Clc1cc2nc3ccc(Br)cc3n2cn1 | > 50 | – | –
Brc1ccc2nc3cc(Nc4ccccc4)ncn3c2c1 | 69 | 49 | 5.2
COc1ccc(-c2cc3nc4ccc(Br)cc4n3cn2)cc1 | 10 | – | > 25
Clc1cncc2nc3ccccc3n12 | > 100 | – | –
Clc1cncc2nc3ccc(Br)cc3n12 | > 50 | – | 2.4
CN1CCN(c2ccc(-c3ccc4nc5cncc(-c6ccc(N7CCN(C)CC7)cc6)n5c4c3)cc2)CC1 | > 100 | 29 | 0.87
COc1ccc(-c2cncc3nc4ccc(-c5ccc(NC(C)=O)cc5)cc4n23)cc1 | 18 | – | –
COc1ccc(-c2cncc3nc4ccc(-c5ccc(N6CCN(C)CC6)cc5)cc4n23)cc1 | 14 | – | –
COc1ccc(-c2cncc3nc4ccc(/C=C/c5ccccc5)cc4n23)cc1 | 3.5 | 4.5 | –
COc1ccc(-c2ccc3nc4cncc(/C=C/c5ccccc5)n4c3c2)cc1 | 0.65 | 1.5 | > 12.5
